What was measured:
[1] = biological target: T1, Retinoblastoma-1 (RB) pocket domain (Homo sapiens, UniProt P06400); assay: Surface plasmon resonance binding to RB pocket domain; conditions: SPR, RB pocket domain on sensor chip; sequence-scrambled peptides as negative controls
T1 construct: Recombinant, purified RB pocket domain was coupled to the surface of the sensor chip; purchased LDBiopharma HTF-1035
T1 sequence (P06400 373-771 limits assumed): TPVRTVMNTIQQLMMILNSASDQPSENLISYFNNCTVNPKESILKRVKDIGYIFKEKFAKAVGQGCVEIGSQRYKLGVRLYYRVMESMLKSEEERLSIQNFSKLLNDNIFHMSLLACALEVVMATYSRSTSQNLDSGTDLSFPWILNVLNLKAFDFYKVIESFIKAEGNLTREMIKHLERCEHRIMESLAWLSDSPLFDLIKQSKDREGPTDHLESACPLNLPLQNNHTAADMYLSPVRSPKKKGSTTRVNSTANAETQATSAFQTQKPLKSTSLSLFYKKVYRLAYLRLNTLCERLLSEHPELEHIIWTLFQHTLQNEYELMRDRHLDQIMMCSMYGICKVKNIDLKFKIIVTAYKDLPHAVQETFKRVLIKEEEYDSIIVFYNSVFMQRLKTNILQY
Description: Since the proliferation of T. parva-infected host cells is thought to be critical for the pathogenesis of infection, we investigated whether synthesized peptides, each 9 to 19 amino acids long and containing these 15 T. parva motifs, could bind to RB (Supplementary Table 1). Surface plasmon resonance (SPR) was used to screen these peptides for specific RB1 pocket domain-binding activity. Recombinant, purified RB pocket domain was coupled to the surface of the sensor chip, and purified peptides were introduced at various concentrations to quantify kinetics if response curves indicated a detectable protein-protein interaction. Sequence-scrambled peptides were used as negative controls to exclude false-positive signals.
Immobilization of human RB1 protein to CM5 chip
Surface preparation. […]
(§1) Kinetics analysis of binding. […] The analytes (60 µl each, 0–25 µM in HBS-EP buffer with 0.05% P20) were injected into flow cell and the association of analyte and ligand were recorded respectively by surface plasmon resonance (SPR) with a Biacore T200 (Biacore, Inc., New Jersey). […]
(§2) Data analysis. Sensorgrams of the interaction generated by the instrument were analyzed using the software BIAeval 3.2 (Biacore Inc., New Jersey). […]

RB pocket domain / E2F-1 = assay: SPR competition of TpGcpE with E2F-1 for the RB pocket domain; type: binding, human; conditions: TpGcpE bound to saturation, then E2F-1 added
Description: In order to map the site of the interaction of the LXCXE motif with the RB pocket domain, we used SPR to test the ability of full-length TpGcpE protein to compete with two proteins that have known, well-characterized interactions with the RB pocket domain, E2F1 and HDAC1. The RB pocket domain was coupled to the surface of the sensor chip, and purified, recombinant, full-length TpGcpE was introduced into the flow channel to bind the RB pocket domain to saturation; then either purified, recombinant E2F-1 or HDAC1 was added to the channel and the response curve recorded to determine if they competed withTpGcpE binding.
(a) A kinetic surface plasmon resonance binding curve (sensorgram) of full-length HDAC1 to the RB pocket domain is shown. (b) Kinetic binding curve of full-length HDAC1 in competition with full-length TpMuguga02_00667 (TpGcpE). (c) A sensorgram of full-length E2F1 to the RB pocket domain is shown. […]
as §1, §2

RB-HDAC1 = RB-HDAC1 binding with penetrating peptides; type: cell-based; conditions: discussion statement
[2] = test system: E2F activity in T. annulata-infected macrophages; assay: E2F-luc reporter assay, T. annulata-transformed macrophages (Ode); type: cell-based, bovine; conditions: 1 μM penetrating peptide, 2 hrs
Procedure: (§3) Since no system for genetic manipulation is available yet for intracellular Theileria, we instead incubated T. parva- and T. annulata-infected bovine leukocytes (transfected with a luciferase reporter regulated from an E2F promoter) with synthesized peptides containing the RB-binding LXCXE motif, or a mutated LXNXE negative control, linked to a cell-penetrating peptide. If the LXCXE-containing peptide can regulate E2F activity in a sequence-specific manner, we would expect it to increase E2F activity, and that this effect would be reduced or abrogated in the mutated LXNXE peptide-treated group.
(a) TpMD409B.2 cells were transfected with E2F-luc (WT = wild-type E2F binding construct), or mutated E2F-luc constructs (labeled ‘mutated’) together with a CMV-lacZ plasmid to normalize for transfection efficiency. Luciferase and β-galactosidase activities were measured 24 hrs after transfection. E2F-luc relative luciferase activity normalized to mE2F-luc. Shown is the average of 3 independent experiments with standard deviation. BL20 or TBL20 cells were treated with (b) 1μM of penetrating peptides ([…]-K(FITC)) containing the TpGcpE LXCXE motif, or an LXNXE control ([…]-K(FITC)) or (c) E2F inhibitor or DMSO control, and then counted by hemacytometer after the indicated timepoints. […] Then, cells were treated with penetrating peptides as in (b) for 2 hrs and luciferase activity was quantified. […]

[3] = test system: E2F activity in T. annulata-infected B cells; assay: E2F-luc reporter assay, T. annulata-infected B cells (TBL20); type: cell-based, bovine
Procedure: as §3
(a) TpMD409B.2 cells were transfected with E2F-luc (WT = wild-type E2F binding construct), or mutated E2F-luc constructs (labeled ‘mutated’) together with a CMV-lacZ plasmid to normalize for transfection efficiency. Luciferase and β-galactosidase activities were measured 24 hrs after transfection. E2F-luc relative luciferase activity normalized to mE2F-luc. Shown is the average of 3 independent experiments with standard deviation. BL20 or TBL20 cells were treated with (b) 1μM of penetrating peptides ([…]-K(FITC)) containing the TpGcpE LXCXE motif, or an LXNXE control ([…]-K(FITC)) or (c) E2F inhibitor or DMSO control, and then counted by hemacytometer after the indicated timepoints. Shown is the average of 3 independent experiments with standard deviation. Then, either (d) virulent Ode T. annulata-transformed macrophages, or (e) BL20/TBL20 T. annulata-transformed cells were transfected with E2F-luc plasmid (or mutated E2F-luc as in (c)) and incubated for 24 hrs at 37 °C. Then, cells were treated with penetrating peptides as in (b) for 2 hrs and luciferase activity was quantified. […]
TpMD409.B2 cells were co-transfected with 20 μg (E2F-luc, mE2F-luc), or 10 μg (cyclin E-luc) reporter construct, 20 μg of expression vector and 5 μg of pCMV-lacZ, where indicated. Luciferase and β-galactosidase activities were measured 24 h after transfection according to previously published procedures. […]

BL20/TBL20 cells = type: cell-based, bovine; conditions: penetrating peptides, 24 h and 48 h; data not shown
Procedure: Since the LXCXE peptide can induce E2F activity, we investigated whether it could, on its own, increase bovine leukocyte proliferation. To extend our observations to T. annulata-infected leukocytes, we incubated T. annulata-infected B cells with WT or mutated LXNXE peptides and counted cell numbers at 24 h and 48 h.
The amino acid sequence of RB-1 based on the parasite sequence ([…]) was synthesized. Cysteine in wild type RB1 was replaced by an Asparagine (N; in bold […]). The penetrating peptide to facilitate cell entry is underlined. 3 different concentrations of peptides were used for 2 h to determine the minimum effective concentration (1 μM) with minimum toxic effect, which was used to perform each experiment as indicated.

[4] = test system: T. annulata-infected TBL20 cells; assay: Cell proliferation, T. annulata-infected B cells (TBL20), hemacytometer count; type: cell-based, bovine
Procedure: (a) TpMD409B.2 cells were transfected with E2F-luc (WT = wild-type E2F binding construct), or mutated E2F-luc constructs (labeled ‘mutated’) together with a CMV-lacZ plasmid to normalize for transfection efficiency. Luciferase and β-galactosidase activities were measured 24 hrs after transfection. E2F-luc relative luciferase activity normalized to mE2F-luc. Shown is the average of 3 independent experiments with standard deviation. BL20 or TBL20 cells were treated with (b) 1μM of penetrating peptides ([…]-K(FITC)) containing the TpGcpE LXCXE motif, or an LXNXE control ([…]-K(FITC)) or (c) E2F inhibitor or DMSO control, and then counted by hemacytometer after the indicated timepoints. Shown is the average of 3 independent experiments with standard deviation. Then, either (d) virulent Ode T. annulata-transformed macrophages, or (e) BL20/TBL20 T. annulata-transformed cells were transfected with E2F-luc plasmid (or mutated E2F-luc as in (c)) and incubated for 24 hrs at 37 °C. Then, cells were treated with penetrating peptides as in (b) for 2 hrs and luciferase activity was quantified. Data shown are representative of three independent experiments done with biological duplicates, with mean + standard deviation (*P-value < 0.05 compared to untreated; ^‡P-value < 0.05 compared to its respective BL20 control).
The TpMD409.B2 cell line is a T. parva Muguga-infected B-cell clone (B2) whose establishment, phenotypic characteristics and culture conditions have been described[25]–[27]. BL20 cells are a retrovirus-transformed B cell line isolated from an infected cow. To eliminate the parasite, cells were treated for the indicated time with buparvaquone (50 ng/ml, 1 mg/ml stock in ethanol; Sigma). To inhibit E2F activity, cells were treated for the indicated time with HLM006474 (10 μM in DMSO, Sigma), or DMSO (10μM; Sigma) as a control. The T. annulata-infected cell lines BL20 (B cell), as well as Ode (macrophage) cell lines are well described and characterized.
The amino acid sequence of RB-1 based on the parasite sequence ([…]) was synthesized. Cysteine in wild type RB1 was replaced by an Asparagine (N; in bold […]). The penetrating peptide to facilitate cell entry is underlined.

Substance	RB binding in words [1]	competition with E2F-1 for RB pocket domain binding (RB pocket domain / E2F-1)	RB-HDAC1 binding (RB-HDAC1)	E2F reporter activity [2]	E2F reporter activity ([3]; T. annulata-infected B cells, E2F-luc, 1 μM penetrating peptide, 2 hrs)	E2F-driven transcription ([3]; discussion statement, infected leukocytes)	cell viability (BL20/TBL20 cells)	proliferation (cell number) ([4]; T. annulata-infected B cells, 1 μM penetrating peptide, 24 h and 48 h, average of 3 independent experiments)	infected leukocyte proliferation ([4]; discussion statement)
E2F1: host E2F transcription factor, known RB pocket domain binder	binding to the RB pocket domain	does not compete with full-length TpGcpE for binding to the RB pocket domain							
VKKKKIKREIKIYIEEVFTPLVLKCKELK-K(FITC) [LXCXE peptide, penetrating peptide containing the TpGcpE LXCXE motif, used in cells]			block RB-HDAC1 binding	increased E2F activity	increased E2F activity	activate E2F-driven transcription	no effect on cell viability	induced a significant increase in proliferation	promote infected leukocyte proliferation
